Experimental data from patent publication US20250134907A1, “FUSED DIAZEPINES AS AGONISTS OF THE INSULIN-LIKE 3 (INSL3) PEPTIDE RECEPTOR RXFP2 AND METHODS OF USE THEREOF” (The United States of America,as represented by the …, priority 2022, published 2025).

How the values were obtained:
[1] = test system: 320 GPCR Tango constructs; assay: PRESTO-Tango GPCRome counter-screen (beta-arrestin recruitment) in transiently transfected HTLA cells; type: cell-based; conditions: 10 μM compound, 320 GPCRs
Description: The PRESTO-Tango GPCRome assay, which measures G-protein coupled receptors (GPCR) mediated beta-arrestin recruitment, was used to perform a HTS of related GPCRs to study specificity and selectivity of the RXFP2 agonists. A total of 320 GPCR Tango constructs were tested. Each of the GPCR constructs used in the assay contained a FLAG tag, the GPCR gene of interest, a Vasopressin 2 C-terminal tail, the TEV protease cleavage site, and the tetracycline-controlled transactivator (tTA) transcription factor. The assay was performed using transiently transfected HTLA cells that stably express the beta-arrestin2-TEV protease fusion protein and a luciferase reporter gene under the control of the tTA transcription factor. Ligand activation of the transfected GPCR construct induces beta-arrestin translocation to the GPCR, where the tobacco etch virus (TEV) protease cleaves the tTA transcription factor, causing activation of luciferase transcription in the nucleus. Thus, luciferase activity in these cells is proportional to beta-arrestin translocation activity. For this assay, HTLA cells were seeded in Poly-L-Lys (PLL)-coated 384-well white clear-bottom plates at 10,000 cell/well in 40 μl/well DMEM supplemented with 10% FBS. […] Plates were incubated for 20 minutes at room temperature protected from light and the luminescence signal was read on a MicroBeta counter (PerkinElmer, Waltham, MA). […]

WT RXFP2 = target: T1, WT RXFP2 (Homo sapiens, UniProt Q8WXD0); assay: HTRF cAMP assay in HEK293T cells transiently transfected with WT RXFP2; type: cell-based
T1 construct: using full-length human RXFP1 and RXFP2 receptor constructs; FLAG; expressed in transfected cells; host or cells: HEK293T (transient, Lipofectamine2000)
T1 sequence (Q8WXD0 whole entry): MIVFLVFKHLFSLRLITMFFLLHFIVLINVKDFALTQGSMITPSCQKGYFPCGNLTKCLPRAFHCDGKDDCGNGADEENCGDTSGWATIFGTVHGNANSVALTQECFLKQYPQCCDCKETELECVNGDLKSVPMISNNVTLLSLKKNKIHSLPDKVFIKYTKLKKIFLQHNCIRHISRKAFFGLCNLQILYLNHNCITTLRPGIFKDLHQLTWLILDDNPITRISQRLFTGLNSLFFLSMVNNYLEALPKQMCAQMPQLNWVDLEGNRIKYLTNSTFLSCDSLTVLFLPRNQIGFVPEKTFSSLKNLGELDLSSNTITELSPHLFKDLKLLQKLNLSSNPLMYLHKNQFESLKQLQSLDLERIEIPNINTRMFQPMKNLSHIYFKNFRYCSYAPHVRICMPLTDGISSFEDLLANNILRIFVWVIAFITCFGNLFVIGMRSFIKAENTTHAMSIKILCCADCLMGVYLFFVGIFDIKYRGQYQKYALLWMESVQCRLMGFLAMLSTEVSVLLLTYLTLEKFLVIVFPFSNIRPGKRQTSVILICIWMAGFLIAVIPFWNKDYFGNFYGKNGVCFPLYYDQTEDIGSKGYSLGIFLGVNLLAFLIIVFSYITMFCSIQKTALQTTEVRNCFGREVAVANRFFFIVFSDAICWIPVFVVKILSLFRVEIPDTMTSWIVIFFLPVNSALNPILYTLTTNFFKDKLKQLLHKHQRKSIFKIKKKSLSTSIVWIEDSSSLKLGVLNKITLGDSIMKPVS
Source text: To further investigate the involvement of the RXFP2 extracellular and transmembrane domains in agonist activation of the receptor, two complementary chimeras were created using the RXFP1 receptor, which is not activated by the agonists of formula (I), to transiently transfect HEK293T cells and measured changes in cAMP induction using the HTRF assay.
Chimeric receptors were generated by IN-FUSION™ (Takara Bio USA, Inc., San Jose, CA) mutagenesis using full-length human RXFP1 and RXFP2 receptor constructs. Polymerase chain reaction (PCR) was performed using PfuTurbo high-fidelity DNA polymerase (Agilent Technologies, Santa Clara, CA) and overlapping primers with at least 15 bp sequence homology within the fusion site. PCR products were digested with Dpnl restricton enzyme at 37° C. overnight, run on a 0.8% agarose gel and purified using the GENEJET™ Gel extraction kit (Thermo Scientific, Waltham, MA). The purified DNA fragments were then ligated into the BamHI and XhoI pre-digested pcDNA3.1™/Zeo(+) AmpR mammalian expression vector using the In-Fusion HD enzyme premix (Clontech, Mountain View, CA) at 50° C. for 15 minutes, and the resulting product was used to transform Stellar competent cells (Takara Bio USA, Inc., San Jose, CA). The clones were fully sequenced to confirm the correct fusion of both receptor fragments. Chimera RXFP2-1 contained the extracellular domain of RXFP2 and the transmembrane domain of RXFP1. Accordingly, chimera RXFP1-2 contained the extracellular domain of RXFP1 and the transmembrane domain of RXFP2.
HEK293T cells were seeded in 6-well flat-bottom clear plates at 0.5 million cells/well in 2 mL/well of growth medium (DMEM, 10% FBS, 1× Pen/Strep) and allowed to attach overnight at 37° C. and 5% CO2. The next morning, cells were transfected with 2 μg of plasmid (chimeric receptors, WT RXFP2, or WT RXFP1) and 6 μl of Lipofectamine2000 (Invitrogen, Waltham, MA) in a total volume of 200 μl/well OPTI-MEM™ I (Thermo Fisher, Waltham, MA) reduced serum medium and allowed to incubate an additional 24 hours. The next day, transfected cells were seeded in 96-well flat-bottom opaque plates at 30,000 cells/well in 60 μL/well of serum-free DMEM medium and allowed to attach overnight at 37° C. at 5% CO2. The next morning, cells were treated with 1 μL/well of compound (25 μM-0.25 nM), 2 μM forskolin, or DMSO vehicle. Cells were also treated with 4 μL of positive control INSL3 (100-0.01 nM), Relaxin2 (100-10 nM), or vehicle (serum-free DMEM+IBMX). Plates were incubated for 1 hour at 37° C. and 5% CO2, after which kit cAMP-d2 and anti-cAMP antibody were added as previously described. Cells were incubated for 1 hour at room temperature, and then the signal was read on a CLARIOstar plate reader (BMG Labtech, Germany).

[2] = test system: trabecular bone of L3 vertebrae; assay: Bone anabolic study, microCT of L3 vertebrae; type: in vivo, C57BL/6J female mice; conditions: 10 mg/kg oral gavage every other day, 8 weeks, vs vehicle

Structure (SMILES) | GPCR agonist hits (minimum 3.0-fold RLU of basal) [1] | Emax (WT RXFP2; HEK-293T, normalized to 2 μM forskolin cAMP response as 100% activity) | EC50 (WT RXFP2; read-out: EC50 (μM or nM)) | bone volume per tissue volume (BV/TV) [2] | trabecular number (Tb.N) [2] | trabecular separation (Tb.Sp) [2] | trabecular thickness (Tb.Th) [2]
O=C1Nc2ccc(-c3cc(C(F)(F)F)cc(C(F)(F)F)c3)cc2C(=O)N2CCN(C(=O)COc3ccc(OC(F)(F)F)cc3Br)C[C@@H]12 [Example 158, (S)-8-(3,5-Bis(trifluoromethyl)phenyl)-2-(2-(2-bromo-4-(trifluoromethoxy)phenoxy)acetyl)-1,3,4,12a-tetrahydrobenzo[e]pyrazino[1,2-a][1,4]diazepine-6,12 (2H, 11H)-dione] | very few GPCR hits |  |  |  |  |  | 
O=C1Nc2ccc(-c3cc(C(F)(F)F)cc(C(F)(F)F)c3)cc2C(=O)N2CCN(C(=O)COc3ccc(OC(F)(F)F)cc3I)C[C@@H]12 [Example 187, (S)-8-(3,5-bis(trifluoromethyl)phenyl)-2-(2-(2-iodo-4-(trifluoromethoxy)phenoxy)acetyl)-1,3,4,12a-tetrahydrobenzo[e]pyrazino[1,2-a][1,4]diazepine-6,12 (2H, 11H)-dione] |  | 86.3 ± 3.38% | 0.012 ± 0.008 µM | small non-significant improvement | significant increase | small non-significant improvement | significant increase
